Here are results for 15 compounds from US8975249B2, “Heterocyclic compounds and uses thereof” (Celgene Avilomics Research, Inc., priority 2010, dated 2015).

SMILES strings stand for the structures.

In general, EC50 refers to the concentration needed to bring the measured effect to its halfway point. A higher EC50 goes with a less potent agent. A word on the IC50: it is the concentration needed to halve the response being measured.

One experiment concerns the target WT EGFR (A431 cells) (Homo sapiens (Human), UniProt P00533). Nature of the experiment: Phospho-EGFR signaling immunoblot in A431 cells (WT EGFR). Conditions: 1 hr treatment, EGF stimulated, phospho-EGFR (Y1068). The format is cell-based. The procedure:
(§1) A431 human epidermoid carcinoma, H1975 human NSCLC and HCC827 human NSCLC adenocarcinoma cells were obtained from the American Type Culture Center (Manassas, Va.). A431 cells were grown in DMEM (Invitrogen, Carlsbad, Calif.) supplemented with 10% FBS (HyClone, South Logan, Utah) and 1% Penicillin-Streptomycin (P/S, Lonza, Walkersville, Md.).
(§2) All primary antibodies were obtained from Cell Signaling (Danvers, Mass.) and used at 1:1000. Secondary antibodies were used at 1:10,000. Goat anti-mouse IgG IRDye 800CW antibody was obtained from LiCor Biosciences (Lincoln, Nebr.) and goat anti-rabbit IgG Alexa Fluor 680 was obtained from Invitrogen.
(§3) Cells were grown in 12-well plates (Corning, Coring, N.Y.) to 90% confluence and then incubated in low-serum (0.1% FBS) media for 16-18 hr. […] A431 cells were then stimulated with 50 ng/ml EGF (Peprotech, Rocky Hill, N.J.) for 15 min. After treatment, cell monolayers were washed with cold PBS (Invitrogen) and immediately lysed by scrapping into 60 uL cold Cell Extraction Buffer (Invitrogen) supplemented with Complete Protease inhibitors (Roche, Indianapolis, Ind.) and PhosphoSTOP (Roche) phosphatase inhibitors.
(§4) Phospho-protein signals were quantitated using Odyssey Infrared Imaging (Li-Cor Biosciences).
(§5) To assess phosphor-EGFR signaling, blots were probed with rabbit anti-Phospho-EGFR (Y1068) and mouse total anti-EGFR antibodies. Phospho-EGFR signal was normalized to total EGFR expression for each sample. […] Normalized data was fitted using a sigmoidal curve analysis program (Graph Pad Prism version 5) with variable Hill slope to determine the EC50 values.
(§6) The compound numbers recited in Table 4 correspond to the compound numbers in Table 1.
A general note: A western blot detects proteins with antibodies after separation by electrophoresis.

Experiment [1] concerns H1975 cells (EGFR L858R/T790M). Nature of the experiment: Cell proliferation (CellTiter Glo), H1975 cells. Conditions: proliferation GI50 WT EGFR / H1975. A general note: ATP-based viability assays read luminescence as a measure of living cells.
Another experiment deals with EGFR (WT) (Homo sapiens (Human), UniProt P00533). Briefly: Omnia biochemical assay, EGFR-WT active enzyme. As to conditions: [EGFR-WT]=5 nM, [ATP]=15 uM, 30 min pre-incubation. The procedure: Kinase reactions were started with the addition of 45 μL of the ATP/Tyr-Sox peptide substrate mix and monitored every 71 seconds for 60 minutes at λex360/λem485 in a Synergy^4 plate reader from BioTek (Winooski, Vt.).
The compound numbers correspond to the compound numbers in Table 1.

Experiment [2] deals with EGFR double mutation L858R/T790M (H1975 cells) (Homo sapiens (Human), UniProt P00533, L858R/T790M). Nature of the experiment: Phospho-EGFR signaling immunoblot in H1975 cells. The format is cell-based. Conditions: for EC50: H1975 cells, 1 hr treatment, phospho-EGFR (Y1068); for Ratio WT/mutant (H1975): signaling EC50 WT EGFR / H1975. The procedure: as §1, §2, §3, §4, §5, §6

In experiment [3] the test system is HCC827 cells (EGFR delE746-A750). Briefly: Cell proliferation (CellTiter Glo), HCC827 cells. As to conditions: proliferation GI50 WT EGFR / HCC827.

Regarding `C=CC(=O)Nc1cccc(Nc2nc(Nc3ccc(N4CCN(C(=O)CO)CC4)cc3OC)ncc2Cl)c1` [Compound I-12, N-(3-(5-chloro-2-(4-(4-(2-hydroxyacetyl)piperazin-1-yl)-2-methoxyphenylamino)pyrimidin-4-ylamino)phenyl)acrylamide], the EC50 (at WT EGFR (A431 cells); in experiment [2]) was above 1000 nM each time. Moreover, the “Ratio WT/mutant (H1975)” value in experiment [1] and in experiment [2] was above 1 each time. In addition, the concentration for half-maximal inhibition (IC50) on EGFR (WT) was 10 to 30 nM. Further, in experiment [3], the “Ratio WT/mutant (HCC827)” value is reported as above 30.

Consider `C=CC(=O)Nc1cccc(Nc2nc(Nc3ccc(N4CCN(C(=O)CC)CC4)cc3OC)ncc2C(F)(F)F)c1` [Compound I-35, N-(3-(2-(2-methoxy-4-(4-propionylpiperazin-1-yl)phenylamino)-5-(trifluoromethyl)pyrimidin-4-ylamino)phenyl)acrylamide], for which the half-maximal effective concentration (EC50) at WT EGFR (A431 cells) was above 1000 nM; in experiment [2] it was below 10 nM. Besides, the “Ratio WT/mutant (H1975)” value in experiment [1] is above 10. In addition, on EGFR (WT), the IC50 fell in the range of 1 to 10 nM. Moreover, in experiment [3], the “Ratio WT/mutant (HCC827)” value is above 25.

For `C=CC(=O)Nc1cccc(Oc2nc(Nc3ccc(N4CCN(C(=O)CO)CC4)cc3OC)ncc2C(F)(F)F)c1` [Compound I-11, N-(3-(2-(4-(4-(2-hydroxyacetyl)piperazin-1-yl)-2-methoxyphenylamino)-5-(trifluoromethyl)pyrimidin-4-yloxy)phenyl)acrylamide], the half-maximal effective concentration (EC50) on WT EGFR (A431 cells) is above 1000 nM; in experiment [2], 100 to 500 nM. For the same compound, the “Ratio WT/mutant (H1975)” value in experiment [1] was above 5; in experiment [2], above 15. The IC50 on EGFR (WT) lay in the range of 10 to 30 nM. Besides, the “Ratio WT/mutant (HCC827)” value in experiment [3] is recorded as above 45.

Regarding `C=CC(=O)Nc1cccc(Oc2nc(Nc3ccc(N4CCN(C(=O)CO)CC4)cc3OC)ncc2Cl)c1` [Compound I-3, N-(3-(5-chloro-2-(4-(4-(2-hydroxyacetyl)piperazin-1-yl)-2-methoxyphenylamino)pyrimidin-4-yloxy)phenyl)acrylamide], the half-maximal effective concentration (EC50) at WT EGFR (A431 cells) was above 1000 nM; in experiment [2], 500 to 1000 nM. Also, the “Ratio WT/mutant (H1975)” value in experiment [1] and in experiment [2] was above 5 each time. Also, the IC50 at EGFR (WT) lay within 1 to 10 nM. For the same compound, the “Ratio WT/mutant (HCC827)” value in experiment [3] was above 45.

On to `C=CC(=O)Nc1cccc(Nc2nc(Nc3ccc(N4CCCN(C(=O)OC(C)(C)C)CC4)cc3OC)ncc2C(F)(F)F)c1` [Compound I-44, tert-butyl 4-(4-(4-(3-acrylamidophenylamino)-5-(trifluoromethyl)pyrimidin-2-ylamino)-3-methoxyphenyl)-1,4-diazepane-1-carboxylate], for which the half-maximal effective concentration (EC50) at WT EGFR (A431 cells) is above 1000 nM; in experiment [2], 500 to 1000 nM. Further, the “Ratio WT/mutant (H1975)” value in experiment [1] and in experiment [2] was above 5 in each case. Besides, the IC50 on EGFR (WT) was in the range of 300 to 1000 nM. The “Ratio WT/mutant (HCC827)” value in experiment [3] is given as above 5.

As to `C=CC(=O)Nc1cccc(Oc2nc(Nc3ccc(N4CCN(C(C)=O)CC4)cc3OC)ncc2Cl)c1` [Compound I-9, N-(3-(2-(4-(4-acetylpiperazin-1-yl)-2-methoxyphenylamino)-5-chloropyrimidin-4-yloxy)phenyl)acrylamide], the concentration for a half-maximal effect (EC50) at WT EGFR (A431 cells) was above 1000 nM. For the same compound, the “Ratio WT/mutant (H1975)” value in experiment [1] is above 5. The half-inhibitory concentration (IC50) at EGFR (WT) lay in the range of 1 to 10 nM. In experiment [3], the “Ratio WT/mutant (HCC827)” value is given as above 50.

Regarding `C=CC(=O)Nc1cccc(Nc2nc(Nc3ccc(N4CCN(C(=O)OC)CC4)cc3OC)ncc2C(F)(F)F)c1` [Compound I-29, methyl 4-(4-(4-(3-acrylamidophenylamino)-5-(trifluoromethyl)pyrimidin-2-ylamino)-3-methoxyphenyl)piperazine-1-carboxylate], on WT EGFR (A431 cells), the concentration for a half-maximal effect (EC50) was above 1000 nM. For the same compound, the “Ratio WT/mutant (H1975)” value in experiment [1] is reported as above 10. In addition, at EGFR (WT), the half-maximal inhibitory concentration (IC50) is 10 to 30 nM. Further, the “Ratio WT/mutant (HCC827)” value in experiment [3] is above 15.

As to `C=CC(=O)Nc1cccc(Nc2nc(Nc3ccc(N4CCS(=O)(=O)CC4)cc3OC)ncc2C(F)(F)F)c1` [Compound I-49, N-(3-(2-(2-methoxy-4,4-dioxo-4-thiomorpholinophenylamino)-5-(trifluoromethyl)pyrimidin-4-ylamino)phenyl)acrylamide], the EC50 at WT EGFR (A431 cells) is above 1000 nM; in experiment [2], 10 to 100 nM. Also, the “Ratio WT/mutant (H1975)” value in experiment [1] is given as above 10; in experiment [2] it was above 20. Further, on EGFR (WT), the concentration for half-maximal inhibition (IC50) was 1 to 10 nM. The “Ratio WT/mutant (HCC827)” value in experiment [3] is above 25.

`C=CC(=O)Nc1cccc(Nc2nc(Nc3ccc(N4CCN(C(=O)C(C)(C)C)CC4)cc3OC)ncc2C(F)(F)F)c1` [Compound I-34, N-(3-(2-(2-methoxy-4-(4-pivaloylpiperazin-1-yl)phenylamino)-5-(trifluoromethyl)pyrimidin-4-ylamino)phenyl)acrylamide]: the EC50 was above 1000 nM on WT EGFR (A431 cells) and 100 to 500 nM in experiment [2]. Besides, the entries for the “Ratio WT/mutant (H1975)” value in experiment [1] and in experiment [2] were above 5 and above 35, respectively. Further, the IC50 on EGFR (WT) is 30 to 100 nM. The “Ratio WT/mutant (HCC827)” value in experiment [3] was above 50.

Take `C=CC(=O)Nc1cccc(Nc2nc(Nc3ccc(N4CCCN(C(C)=O)CC4)cc3OC)ncc2C(F)(F)F)c1` [Compound I-7, N-(3-(2-(4-(4-acetyl-1,4-diazepan-1-yl)-2-methoxyphenylamino)-5-(trifluoromethyl)pyrimidin-4-ylamino)phenyl)acrylamide]: the EC50 was above 1000 nM at WT EGFR (A431 cells) and 100 to 500 nM in experiment [2]. Further, the results for the “Ratio WT/mutant (H1975)” value in experiment [1] and in experiment [2] were above 1 and above 5, respectively. Moreover, the IC50 on EGFR (WT) lay in the range of 10 to 30 nM. For the same compound, the “Ratio WT/mutant (HCC827)” value in experiment [3] is reported as above 10.

For the compound `C=CC(=O)Nc1cccc(Nc2nc(Nc3ccc(N4CCN(C(=O)CO)CC4)cc3OC)ncc2C(F)(F)F)c1` [Compound I-6, N-(3-(2-(4-(4-(2-hydroxyacetyl)piperazin-1-yl)-2-methoxyphenylamino)-5-(trifluoromethyl)pyrimidin-4-ylamino)phenyl)acrylamide], the EC50 at WT EGFR (A431 cells) was above 1000 nM; in experiment [2] it was 10 to 100 nM. The “Ratio WT/mutant (H1975)” value is reported as above 10 in experiment [1] and above 20 in experiment [2]. The IC50 at EGFR (WT) was 1 to 10 nM. Besides, the “Ratio WT/mutant (HCC827)” value in experiment [3] is given as above 40.

Turning to `C=CC(=O)Nc1cccc(Nc2nc(Nc3ccc(N4CCN(C(C)=O)CC4)cc3OC)ncc2Br)c1` [Compound I-40, N-(3-(2-(4-(4-acetylpiperazin-1-yl)-2-methoxyphenylamino)-5-bromopyrimidin-4-ylamino)phenyl)acrylamide], the concentration giving a half-maximal response (EC50) (at WT EGFR (A431 cells); in experiment [2]) was above 1000 nM in each case. Besides, the “Ratio WT/mutant (H1975)” value is above 5 in experiment [1] and above 1 in experiment [2]. Besides, the IC50 at EGFR (WT) fell in the range of 10 to 30 nM. For the same compound, the “Ratio WT/mutant (HCC827)” value in experiment [3] is above 10.

Turning to `C=CC(=O)Nc1cccc(Oc2nc(Nc3ccc(N4CCN(S(N)(=O)=O)CC4)cc3OC)ncc2C(F)(F)F)c1` [Compound I-27, N-(3-(2-(2-methoxy-4-(4-sulfamoylpiperazin-1-yl)phenylamino)-5-(trifluoromethyl)pyrimidin-4-yloxy)phenyl)acrylamide], the 50% effective concentration (EC50) at WT EGFR (A431 cells) is above 1000 nM. Further, the “Ratio WT/mutant (H1975)” value in experiment [1] is given as above 1. On EGFR (WT), the IC50 is 1 to 10 nM. Also, the “Ratio WT/mutant (HCC827)” value in experiment [3] is given as above 10.

`C=CC(=O)Nc1cccc(Nc2nc(Nc3ccc(N4CCN(C(C)=O)CC4)cc3OC(F)(F)F)ncc2C(F)(F)F)c1` [Compound I-33, N-(3-(2-(4-(4-acetylpiperazin-1-yl)-2-(trifluoromethoxy)phenylamino)-5-(trifluoromethyl)pyrimidin-4-ylamino)phenyl)acrylamide]: the EC50 on WT EGFR (A431 cells) is above 1000 nM; in experiment [2], 10 to 100 nM. The “Ratio WT/mutant (H1975)” value in experiment [1] is above 30; in experiment [2], above 50. The IC50 at EGFR (WT) was 1 to 10 nM. Besides, the “Ratio WT/mutant (HCC827)” value in experiment [3] was above 15.

As for `C=CC(=O)Nc1cccc(Oc2nc(Nc3ccc(N4CCOCC4)cc3OC(F)F)ncc2C(F)(F)F)c1` [Compound I-13, N-(3-(2-(2-(difluoromethoxy)-4-morpholinophenylamino)-5-(trifluoromethyl)pyrimidin-4-yloxy)phenyl)acrylamide], the “Ratio WT/mutant (H1975)” value in experiment [1] was above 10. The 50% inhibitory concentration (IC50) on EGFR (WT) fell in the range of 30 to 100 nM. Moreover, the EC50 in experiment [2] lay within 10 to 100 nM. Further, the “Ratio WT/mutant (HCC827)” value in experiment [3] was above 50.
